Where two headings read alike, the source gives them in different places.
Tests used:
[1] = biological target: T1, dopamine transporter (DAT) (Homo sapiens, UniProt Q01959); test: In vitro binding affinity for DAT, radioligand [^3H]GBR12935 (Table 1); set-up: species or system rat or human (cloned)
T1 construct: host or cells: either rat cortical tissue or cells expressing the cloned human transporter
Method: (§1) Selected compounds were assayed in vitro for their binding affinity for the dopamine transporter (DAT), serotonin transporter (SERT), and norepinephrine transporter (NET) using membranes prepared from either the rat cortical tissues or cells expressed with cloned-human transporters and radioligands. Radioligands used were [^3H]paroxetine (SERT), [^3H]nisoxetine (NET), and [^3H]GBR12935 (DAT).

[2] = biological target: T2, norepinephrine transporter (NET) (Homo sapiens, UniProt P23975); test: In vitro binding affinity for NET, radioligand [^3H]nisoxetine (Table 1); set-up: species or system rat or human (cloned)
T2 construct: host or cells: either rat cortical tissue or cells expressing the cloned human transporter
Method: as §1

[3] = biological target: T3, serotonin transporter (SERT) (Rattus norvegicus, UniProt P31652); test: In vitro binding affinity for SERT, radioligand [^3H]paroxetine (Table 1); set-up: species or system rat or human (cloned)
T3 construct: membranes prepared from either the rat cortical tissues or cells expressed with cloned-human transporters; from tissue; host or cells: rat cortical tissue membranes (inferred; the alternative is cells expressing cloned human SERT)
Method: as §1

[4] = Experiment 5: plasma clearance of ^11C and ^18F labeled AFM, AFA, AFE in one baboon; assay type: in vivo; conditions: one adult male baboon, n = 1 to 4 scans
Method: (§2) General scanning methods were as described in Huang et al. (2002). Arterial input function was measured and corrected for metabolites.

[5] = Biodistribution of labeled radioligands in male Sprague-Dawley rats; assay type: in vivo; conditions: mean ± SD, n = 3
Source text: Appropriately labeled compounds were studied in animals to assess their binding characteristics in the brain. Procedures for these biodistribution studies are as follows. […] The brain regions (cerebellum, hippocampus, striatum, frontal cortex, thalamus and hypothalamus), along with samples of blood and part of the tail, were removed, weighed, and counted in a Packard Cobra II gamma counter. The percent injected dose (% ID) of the decay- and tail-corrected activity in the brain regions and blood were calculated based upon C-11 standards prepared from the injection solution, and the % ID/g were calculated using the tissue weights.

SERT = test: Experiment 5: PET brain imaging of ^11C and ^18F labeled AFM, AFA, AFE in one baboon; assay type: in vivo; conditions: one adult male baboon, n = 1 to 4 scans, two-compartment model
Method: as §2
Activity distributed in the brain in accordance to the known density distribution pattern of SERT (Laruelle et al., 1988). […] Data were analyzed with a two-compartment model, using the metabolite-corrected arterial time-activity curve as input function. This analysis provided the regional distribution volumes (VT, mL/g).
The nonspecific distribution volume, measured as the distribution volume of the cerebellum (a region with negligible SERT density) was in a similar range for all tracers (10 to 30 mL/g, Table 16).
The specific to nonspecific partition coefficient, V3″, was calculated as the ratio of VT in the region of interest (ROI) to cerebellum VT minus one. V3″ provides a measure related to receptor parameters as follows: […]

T2 sequence (P23975 whole entry, species assumed): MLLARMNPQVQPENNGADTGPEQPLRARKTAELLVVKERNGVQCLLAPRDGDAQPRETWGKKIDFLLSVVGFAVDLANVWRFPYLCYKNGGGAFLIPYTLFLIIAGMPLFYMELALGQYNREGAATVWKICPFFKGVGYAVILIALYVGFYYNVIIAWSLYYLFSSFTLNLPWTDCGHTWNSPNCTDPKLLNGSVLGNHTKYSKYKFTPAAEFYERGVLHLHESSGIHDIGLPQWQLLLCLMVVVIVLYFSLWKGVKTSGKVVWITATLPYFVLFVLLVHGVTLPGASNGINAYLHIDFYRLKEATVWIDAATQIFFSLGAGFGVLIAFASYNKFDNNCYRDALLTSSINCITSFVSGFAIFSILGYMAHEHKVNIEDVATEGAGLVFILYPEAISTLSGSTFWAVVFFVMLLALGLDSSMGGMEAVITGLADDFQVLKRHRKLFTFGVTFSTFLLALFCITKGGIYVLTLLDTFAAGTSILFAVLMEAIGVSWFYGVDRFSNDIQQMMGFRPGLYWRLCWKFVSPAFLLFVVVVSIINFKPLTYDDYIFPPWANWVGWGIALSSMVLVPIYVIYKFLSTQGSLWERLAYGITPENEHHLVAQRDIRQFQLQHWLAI
T1 sequence (Q01959 whole entry, species assumed): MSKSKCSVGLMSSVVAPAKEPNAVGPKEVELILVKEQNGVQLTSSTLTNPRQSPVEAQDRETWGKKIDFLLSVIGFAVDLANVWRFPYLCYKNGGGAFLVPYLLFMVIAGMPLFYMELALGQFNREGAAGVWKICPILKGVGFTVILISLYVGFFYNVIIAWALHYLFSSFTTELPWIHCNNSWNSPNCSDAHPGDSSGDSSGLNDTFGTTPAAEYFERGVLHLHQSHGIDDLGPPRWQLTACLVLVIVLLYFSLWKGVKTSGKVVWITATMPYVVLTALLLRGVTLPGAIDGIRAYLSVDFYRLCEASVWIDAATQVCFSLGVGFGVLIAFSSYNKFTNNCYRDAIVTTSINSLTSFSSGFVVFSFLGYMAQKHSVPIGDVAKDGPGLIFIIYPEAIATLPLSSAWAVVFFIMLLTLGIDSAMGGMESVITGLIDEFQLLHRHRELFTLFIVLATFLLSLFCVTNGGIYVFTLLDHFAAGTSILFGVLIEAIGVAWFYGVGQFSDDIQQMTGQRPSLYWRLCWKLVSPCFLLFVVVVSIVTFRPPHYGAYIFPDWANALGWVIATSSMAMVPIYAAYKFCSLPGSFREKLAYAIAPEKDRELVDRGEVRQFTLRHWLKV
T3 sequence (P31652 whole entry): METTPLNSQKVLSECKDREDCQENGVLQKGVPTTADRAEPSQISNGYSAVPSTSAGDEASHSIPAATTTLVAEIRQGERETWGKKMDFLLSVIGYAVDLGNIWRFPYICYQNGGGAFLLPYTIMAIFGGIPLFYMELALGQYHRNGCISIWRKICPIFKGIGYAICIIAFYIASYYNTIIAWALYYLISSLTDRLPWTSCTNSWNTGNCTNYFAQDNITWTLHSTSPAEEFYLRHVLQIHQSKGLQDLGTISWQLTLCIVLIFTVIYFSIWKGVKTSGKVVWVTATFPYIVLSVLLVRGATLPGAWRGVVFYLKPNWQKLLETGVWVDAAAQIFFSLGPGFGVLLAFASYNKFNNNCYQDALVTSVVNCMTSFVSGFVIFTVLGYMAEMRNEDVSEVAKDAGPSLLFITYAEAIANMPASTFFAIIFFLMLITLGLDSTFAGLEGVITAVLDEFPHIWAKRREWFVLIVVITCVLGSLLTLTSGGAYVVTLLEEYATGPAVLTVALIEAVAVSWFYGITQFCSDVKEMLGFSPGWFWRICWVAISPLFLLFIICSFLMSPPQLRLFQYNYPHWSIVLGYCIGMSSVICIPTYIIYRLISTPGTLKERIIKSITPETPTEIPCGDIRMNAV

Row | SMILES | % ID/g Blood ([5]; 10 min post-injection) [% ID/g] | % ID/g Cerebellum ([5]; 10 min post-injection) [% ID/g] | % ID/g Frontal Ctx. ([5]; 10 min post-injection) [% ID/g] | % ID/g Hippocamp. ([5]; 10 min post-injection) [% ID/g] | % ID/g Hypothal. ([5]; 10 min post-injection) [% ID/g] | % ID/g Striatum ([5]; 10 min post-injection) [% ID/g] | % ID/g Thalamus ([5]; 10 min post-injection) [% ID/g] | % ID/g Blood ([5]; 30 min post-injection) [% ID/g] | % ID/g Cerebellum ([5]; 30 min post-injection) [% ID/g] | % ID/g Frontal Ctx. ([5]; 30 min post-injection) [% ID/g] | % ID/g Hippocamp. ([5]; 30 min post-injection) [% ID/g] | % ID/g Hypothal. ([5]; 30 min post-injection) [% ID/g] | % ID/g Striatum ([5]; 30 min post-injection) [% ID/g] | % ID/g Thalamus ([5]; 30 min post-injection) [% ID/g] | % ID/g Blood ([5]; 60 min post-injection) [% ID/g] | % ID/g Cerebellum ([5]; 60 min post-injection) [% ID/g] | % ID/g Frontal Ctx. ([5]; 60 min post-injection) [% ID/g] | % ID/g Hippocamp. ([5]; 60 min post-injection) [% ID/g] | % ID/g Hypothal. ([5]; 60 min post-injection) [% ID/g] | % ID/g Striatum ([5]; 60 min post-injection) [% ID/g] | further results
1 | CN(C)Cc1ccccc1Sc1ccc(F)cc1N [AFA, 2-(2-(Dimethylaminomethyl)phenylthio)-5-fluorophenylamine] | – | – | – | – | – | – | – | – | – | – | – | – | – | – | – | – | – | – | – | – | Ki [1]: > 10000 nM; Ki [2]: 142 nM; Ki ([3]; read-out: Ki SERT): 1.46 nM
2 | CN(C)Cc1ccccc1Sc1ccc(CCF)cc1N [AFE, 2-(2-(Dimethylaminomethyl)phenylthio)-5-(2-fluoroethyl)phenylamine] | – | – | – | – | – | – | – | – | – | – | – | – | – | – | – | – | – | – | – | – | Ki [1]: > 10000 nM; Ki [2]: 946 nM; Ki [3]: 1.88 nM
3 | CN(C)Cc1ccccc1Sc1ccc(CCCF)cc1N [AFP, 2-(2-(Dimethylaminomethyl)phenylthio)-5-(3-fluoropropyl)-phenylamine] | – | – | – | – | – | – | – | – | – | – | – | – | – | – | – | – | – | – | – | – | Ki [1]: > 10000 nM; Ki [2]: 505 nM; Ki [3]: 3.58 nM
4 | Cc1ccc(Sc2ccccc2CN(C)C)c(N)c1 [MADAM, 2-(2-(Dimethylaminomethyl)phenylthio)-5-methylphenylamine] | – | – | – | – | – | – | – | – | – | – | – | – | – | – | – | – | – | – | – | – | Ki [1]: > 10000 nM; Ki [2]: 320 nM; Ki [3]: 1.19 nM
5 | CN([11CH3])Cc1ccccc1Sc1ccc(F)cc1N [[^11C]AFA, [^11C]2-[2-(Dimethylaminomethyl)phenylthio]-5-fluorophenylamine] | 0.26 ± 0.10 | 0.35 ± 0.12 | 0.70 ± 0.25 | 0.48 ± 0.17 | 0.55 ± 0.18 | 0.54 ± 0.18 | 0.60 ± 0.24 | 0.08 ± 0.01 | 0.14 ± 0.02 | 0.49 ± 0.06 | 0.34 ± 0.02 | 0.47 ± 0.06 | 0.38 ± 0.14 | 0.44 ± 0.05 | 0.06 ± 0.01 | 0.09 ± 0.02 | 0.29 ± 0.05 | 0.24 ± 0.03 | 0.42 ± 0.06 | 0.26 ± 0.04 | Clearance [4]: 54 ± 6 L/h; % ID/g Thalamus ([5]; 60 min post-injection): 0.39 ± 0.04 % ID/g; Cerebellum V (nonspecific distribution volume) (SERT): 13 ± 3 mL/g
6 | CN(C)Cc1ccccc1Sc1ccc(CCF)cc1N [[^11C]AFE, [^11C]2-[2-(Dimethylaminomethyl)phenylthio]-5-fluoroethylphenylamine] | 0.15 ± 0.03 | 0.31 ± 0.03 | 0.61 ± 0.07 | 0.44 ± 0.04 | 0.61 ± 0.11 | 0.58 ± 0.08 | 0.63 ± 0.08 | 0.07 ± 0.01 | 0.12 ± 0.00 | 0.39 ± 0.03 | 0.31 ± 0.03 | 0.44 ± 0.04 | 0.35 ± 0.05 | 0.44 ± 0.05 | 0.05 ± 0.01 | 0.05 ± 0.00 | 0.19 ± 0.02 | 0.18 ± 0.02 | 0.29 ± 0.03 | 0.19 ± 0.02 | Clearance [4]: 73 L/h; % ID/g Thalamus ([5]; 60 min post-injection): 0.22 ± 0.01 % ID/g; Cerebellum V (nonspecific distribution volume) (SERT): 16 mL/g
7 | Cc1ccc(Sc2ccccc2CN(C)[11CH3])c(N)c1 [[^11C]MADAM, [^11C]2-[2-(Dimethylaminomethyl)phenylthio]-5-methylphenylamine] | 0.61 ± 0.15 | 1.04 ± 0.33 | 2.17 ± 0.78 | 1.39 ± 0.29 | 1.93 ± 0.72 | 1.57 ± 0.54 | 1.95 ± 0.61 | 0.26 ± 0.07 | 0.55 ± 0.04 | 1.78 ± 0.23 | 1.14 ± 0.17 | 1.48 ± 0.22 | 1.41 ± 0.21 | 1.66 ± 0.17 | 0.15 ± 0.04 | 0.27 ± 0.01 | 0.89 ± 0.07 | 0.84 ± 0.27 | 1.39 ± 0.28 | 0.81 ± 0.15 | % ID/g Thalamus ([5]; 60 min post-injection): 1.14 ± 0.18 % ID/g
8 | CN(C)Cc1ccccc1Sc1ccc([18F])cc1N [[^18F]AFA, [^18F]2-[2-(Dimethylaminomethyl)phenylthio]-5-fluorophenylamine] | 0.27 ± 0.01 | 0.38 ± 0.09 | 0.81 ± 0.26 | 0.54 ± 0.17 | 0.73 ± 0.26 | 0.65 ± 0.18 | 0.72 ± 0.24 | 0.16 ± 0.01 | 0.20 ± 0.01 | 0.65 ± 0.08 | 0.48 ± 0.02 | 0.66 ± 0.05 | 0.58 ± 0.05 | 0.69 ± 0.03 | 0.09 ± 0.00 | 0.07 ± 0.01 | 0.28 ± 0.05 | 0.23 ± 0.04 | 0.38 ± 0.03 | 0.26 ± 0.02 | Clearance [4]: 68 L/h; % ID/g Thalamus ([5]; 60 min post-injection): 0.34 ± 0.05 % ID/g; % ID/g Blood ([5]; 90 min post-injection): 0.08 ± 0.01 % ID/g; % ID/g Cerebellum ([5]; 90 min post-injection): 0.05 ± 0.01 % ID/g; % ID/g Frontal Ctx. ([5]; 90 min post-injection): 0.20 ± 0.02 % ID/g; % ID/g Hippocamp. ([5]; 90 min post-injection): 0.18 ± 0.01 % ID/g; % ID/g Hypothal. ([5]; 90 min post-injection): 0.30 ± 0.06 % ID/g; % ID/g Striatum ([5]; 90 min post-injection): 0.19 ± 0.01 % ID/g; % ID/g Thalamus ([5]; 90 min post-injection): 0.23 ± 0.05 % ID/g; % ID/g Blood ([5]; 120 min post-injection): 0.07 ± 0.01 % ID/g; % ID/g Cerebellum ([5]; 120 min post-injection): 0.04 ± 0.00 % ID/g; % ID/g Frontal Ctx. ([5]; 120 min post-injection): 0.11 ± 0.02 % ID/g; % ID/g Hippocamp. ([5]; 120 min post-injection): 0.10 ± 0.01 % ID/g; % ID/g Hypothal. ([5]; 120 min post-injection): 0.17 ± 0.01 % ID/g; % ID/g Striatum ([5]; 120 min post-injection): 0.11 ± 0.02 % ID/g; % ID/g Thalamus ([5]; 120 min post-injection): 0.16 ± 0.02 % ID/g; Cerebellum V (nonspecific distribution volume) (SERT): 24 mL/g
9 | CN(C)Cc1ccccc1Sc1ccc(CC[18F])cc1N [[^18F]AFE, [^18F]2-[2-(Dimethylaminomethyl)phenylthio]-5-(2-fluoroethyl)phenylamine] | 0.25 ± 0.01 | 0.28 ± 0.02 | 0.62 ± 0.08 | 0.38 ± 0.03 | 0.51 ± 0.05 | 0.51 ± 0.05 | 0.58 ± 0.08 | 0.13 ± 0.03 | 0.13 ± 0.01 | 0.32 ± 0.01 | 0.27 ± 0.04 | 0.41 ± 0.03 | 0.33 ± 0.01 | 0.39 ± 0.01 | 0.07 ± 0.02 | 0.06 ± 0.01 | 0.19 ± 0.04 | 0.17 ± 0.04 | 0.24 ± 0.04 | 0.21 ± 0.05 | Clearance [4]: 71 L/h; % ID/g Thalamus ([5]; 60 min post-injection): 0.27 ± 0.04 % ID/g; % ID/g Blood ([5]; 90 min post-injection): 0.04 ± 0.01 % ID/g; % ID/g Cerebellum ([5]; 90 min post-injection): 0.03 ± 0.01 % ID/g; % ID/g Frontal Ctx. ([5]; 90 min post-injection): 0.08 ± 0.01 % ID/g; % ID/g Hippocamp. ([5]; 90 min post-injection): 0.09 ± 0.01 % ID/g; % ID/g Hypothal. ([5]; 90 min post-injection): 0.14 ± 0.02 % ID/g; % ID/g Striatum ([5]; 90 min post-injection): 0.10 ± 0.02 % ID/g; % ID/g Thalamus ([5]; 90 min post-injection): 0.17 ± 0.02 % ID/g; % ID/g Blood ([5]; 120 min post-injection): 0.02 ± 0.01 % ID/g; % ID/g Cerebellum ([5]; 120 min post-injection): 0.02 ± 0.00 % ID/g; % ID/g Frontal Ctx. ([5]; 120 min post-injection): 0.06 ± 0.00 % ID/g; % ID/g Hippocamp. ([5]; 120 min post-injection): 0.07 ± 0.00 % ID/g; % ID/g Hypothal. ([5]; 120 min post-injection): 0.10 ± 0.01 % ID/g; % ID/g Striatum ([5]; 120 min post-injection): 0.08 ± 0.01 % ID/g; % ID/g Thalamus ([5]; 120 min post-injection): 0.13 ± 0.02 % ID/g; Cerebellum V (nonspecific distribution volume) (SERT): 19 mL/g
